Where a name gives a salt, the structure may show the parent alone.
The molecules below were run against Human plasma kallikrein (Homo sapiens (Human), UniProt P03952) (assay: In vitro plasma kallikrein inhibition assay (chromogenic substrate D-Pro-Phe-Arg-pNa, absorbance at 405 nm, IC50 determination)). Conditions: not given.
Assay type: biochemical
Protocol: In Vitro Plasma Kallikrein Inhibition Assay
The chromogenic substrate D-Pro-Phe-Arg-pNa, 2HCl (BIOPHEN CS-31(02) from Hyphen BioMed, Neuville-Sur-oise, France) was dissolved in 5 mL deionized water and stored at 4° C. […] All other chemicals were of analytical grade.
A stock solution of 7 μM in 50% glycerol was stored at −20° C.
Enzyme reactions were conducted in “assay buffer” comprised of 20 mM HEPES at pH 7.4, 150 mM NaCl, 0.1% PEG-8000 and 0.01% Triton X-100.
Both enzyme and substrate were diluted in assay buffer.
Plate measurements were conducted using a SPECTROStar Nano reader (BMG Labtech, San Francisco, Calif., USA). […] We used discrete wavelength, precise, kinetic reads of 15 cycles with a 60 sec cycle time.
Determination of IC50 values
The test compound was dissolved in 100% DMSO. The compounds were serially diluted in DMSO in a 7 point dose response. For the assays, 66.5 μL of protease solution (protease in assay buffer) was added per well followed by the addition of 8.5 μL of compound in 100% DMSO. […] After 30 min. incubation at room temperature on an orbital shaker, the reactions were started by the addition of 10 μL substrate solution (in assay buffer, final assay concentration was 600 uM). After the addition of the substrate solution the final DMSO concentration was 10%. The plate was placed again on the shaker for 5 sec, spun at 2000 rpm for 5 sec and read on the spectrophotometer. […] The IC50 value was calculated from the plot of rate vs. inhibitor concentration by a 4 parameter logistic equation: y=A+((B−A)/([…]))
where y is the rate at the inhibitor concentration, x. A is the minimum y value at the highest inhibitor concentration and B is the y value in the absence of inhibitor, C is the IC50 value and D is the slope factor. The curve fitting was conducted with the non-linear regression routine of the analysis software XLfit (IDBS, version 5.3.1).

Sequence of Human plasma kallikrein (P03952 391-638): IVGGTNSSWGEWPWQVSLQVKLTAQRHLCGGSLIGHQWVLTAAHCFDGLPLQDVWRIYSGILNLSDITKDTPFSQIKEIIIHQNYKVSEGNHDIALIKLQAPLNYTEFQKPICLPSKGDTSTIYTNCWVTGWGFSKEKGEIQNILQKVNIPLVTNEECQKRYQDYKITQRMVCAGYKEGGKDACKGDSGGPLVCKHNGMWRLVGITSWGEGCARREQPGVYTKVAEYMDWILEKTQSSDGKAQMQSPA
Sequence of Human plasma kallikrein (P03952 20-390 partner): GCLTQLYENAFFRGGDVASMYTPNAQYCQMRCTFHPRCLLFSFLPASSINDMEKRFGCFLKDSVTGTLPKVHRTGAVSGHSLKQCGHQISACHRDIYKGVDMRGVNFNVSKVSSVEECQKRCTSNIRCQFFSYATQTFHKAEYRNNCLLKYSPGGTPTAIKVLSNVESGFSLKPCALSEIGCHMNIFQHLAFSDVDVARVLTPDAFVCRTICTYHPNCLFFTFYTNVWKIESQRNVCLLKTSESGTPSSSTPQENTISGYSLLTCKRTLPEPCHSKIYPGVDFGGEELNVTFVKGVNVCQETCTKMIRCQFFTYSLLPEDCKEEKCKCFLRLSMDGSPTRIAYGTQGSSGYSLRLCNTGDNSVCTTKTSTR

Point of comparison: CON=C(N)c1cc(F)c(CNC(=O)c2ccc3c(c2)[C@@H]2O[C@H]3c3ccc(-c4nccs4)cc32)c(F)c1 [Example 274], “KLKB1 pIC50” value 5.86. Against it:
- (±)-N-[(6-amino-2,4- dimethylpyridin-3-yl)methyl]- 12-(phenylsulfanyl)-15- oxatetracyclo[6.6.1.0^2,^7.0^9,1^4] pentadeca- 2,4,6,9,11,13-hexaene-4- carboxamide (±)-N-[(6-amino-2,4- dimethylpyridin-3-yl)methyl]-11- (phenylsulfanyl)-15- oxatetracydo[6.6.1.0^2,^7.0^9,1^4] pentadeca-2,4,6,9,11,13- hexaene-4-carboxamide [Example 164] — higher, 6.86
- CON=C(N)c1ccc(CNC(=O)c2ccc3c(c2)[C@@H]2O[C@H]3c3ccc(-c4ccccc4F)cc32)cc1 [Example 240, (1R,8S)-12-(2-fluorophenyl)-N-{[4-(N′-methoxy-carbamimidoyl)phenyl]methyl}-15-oxatetracyclo-[6.6.1.0^2,^7.0^9,1^4]pentadeca-2,4,6,9,11,13-hexaene-4-carboxamide] — lower, 4
- Cc1cc(N)nc(C)c1CNC(=O)c1ccc2c(c1)C1OC2(C)c2ccc(-c3ccc(F)cc3)cc21 (racemic) [Example 334, (±)-N-[(6-amino-2,4-dimethyl-pyridin-3-yl)methyl]-12-(4-fluorophenyl)-8-methyl-15-oxatetracyclo[6.6.1.0^2,^7.0^9,1^4] pentadeca-2,4,6,9,11,13-hexaene-4-carboxamide (±)-N-[(6-amino-2,4-dimethylpyridin-3-yl)methyl]-11-(4-fluorophenyl)-8-methyl-15-oxatetracyclo[6.6.1.0^2,^7.0^9,1^4] pentadeca-2,4,6,9,11,13-hexaene-4-carboxamide] — lower, 5.6

Same assay, conditions: read-out: KLKB1 pIC50 (converted)

Point of comparison: CC(C)(F)c1ccc2c(c1)[C@H]1O[C@@H]2c2ccc(C(=O)NCc3ccc(C(=N)N)cc3)cc21 (single isomer, unassigned) [Example 284], IC50 6.31 nM. Against it:
- COc1ccc(Cl)c(CNC(=N)c2ccc3c(c2)[C@@H]2O[C@H]3c3ccc(-c4ccc(F)cc4F)cc32)c1F (single isomer, unassigned) [Example 264] — 380-fold higher, 2400 nM
- Nc1nccc2c(CNC(=O)c3ccc4c(c3)[C@@H]3O[C@H]4c4ccc(C(=O)c5ccccc5)cc43)cccc12 (single isomer, unassigned) [Example 226] — 5.8-fold higher, 36.3 nM
- C=Cc1cc(N)nc(C)c1CNC(=O)c1ccc2c(c1)[C@@H]1O[C@H]2c2ccc(-c3ccc(F)cc3F)cc21 (single isomer, unassigned) [Example 219] — 2.7-fold higher, 17 nM
- N=C(N)c1ccc(CNC(=O)c2ccc3c(c2)[C@@H]2O[C@H]3c3ccc(N4CC(F)(F)C4)cc32)cc1 (single isomer, unassigned) [Example 307] — 6.3-fold lower, 1 nM
- C=C(C)c1ccc2c(c1)[C@H]1O[C@@H]2c2ccc(C(=O)NCc3c(F)cc(C(=N)N)cc3F)cc21 (single isomer, unassigned) [Example 285] — 6.3-fold lower, 1 nM
- Cc1cnn(Cc2ccc3c(c2)C2OC3c3ccc(C(=O)NCc4c(C)cc5c(c4C)CNC5)cc32)c1 (racemic) [Example 162, (±)-N-[(4,6-dimethyl-2,3-dihydro-1H-isoindol-5-yl)methyl]-12-[(4-methyl-1H-pyrazol-1-yl)methyl]-15-oxatetracyclo [6.6.1.0^2,^7.0^9,1^4]-pentadeca-2,4,6,9,11,13-hexaene-4-carboxamide] — 11-fold higher, 72.4 nM
- N=C(N)c1ccc(CNC(=O)c2ccc3c(c2)C2OC3c3ccc(-c4ccc(F)cc4F)cc32)cc1F (racemic) [Example 198, (±)-N-[(4-carbamimidoyl-3-fluorophenyl)methyl]-12-(2,4-difluorophenyl)-15-oxatetracyclo-[6.6.1.0^2,^7.0^9,1^4]pentadeca-2,4,6,9,11,13-hexaene-4-carboxamide] — 3.3-fold higher, 20.9 nM
- Cc1cc(N)nc(C)c1CNC(=O)c1ccc2c(c1)[C@@H]1O[C@H]2c2ccc(N(C)c3cccc(F)c3)cc21 (single isomer, unassigned) [Example 218] — 4.3-fold higher, 26.9 nM
- Nc1ncc(CNC(=O)c2ccc3c(c2)C2OC3c3ccc(-c4ccc(F)cc4F)cc32)c2ccccc12 (racemic) [Example 155, (±)-N-[(1-aminoisoquinolin-4-yl)methyl]-12-(2,4-difluorophenyl)-15-oxatetracyclo [6.6.1.0^2,^7.0^9,1^4]-pentadeca-2,4,6,9,11,13-hexaene-4-carboxamide] — 650-fold higher, 4070 nM
- CCOc1cc(N)nc(C)c1CNC(=O)c1ccc2c(c1)C1OC2c2ccc(Cn3cc(C)cn3)cc21 (racemic) [Example 134, (±)-N-[(6-amino-4-ethoxy-2-methylpyridin-3-yl)methyl]-12-[(4-methyl-1H-pyrazol-1-yl)methyl]-15-oxatetracyclo[6.6.1.0^2,^7.0^9,1^4]-pentadeca-2,4,6,9,11,13-hexaene-4-carboxamide] — 3.2-fold lower, 2 nM
- CCc1ccc2c(c1)[C@H]1O[C@@H]2c2ccc(C(=O)NCc3ccc(C(=N)N)cc3)cc21 (single isomer, unassigned) [Example 233] — within 1.5-fold, 7.08 nM
- CCc1cc2c(cc1CC)[C@H]1O[C@@H]2c2ccc(C(=O)NCc3ccc(C(=N)N)cc3)cc21 (single isomer, unassigned) [Example 392] — 6.3-fold lower, 1 nM
- Cc1cc(N)nc(C)c1CNC(=O)c1ccc2c(c1)[C@@H]1O[C@H]2c2ccc(N(c3cccc(F)c3)S(C)(=O)=O)cc21 (single isomer, unassigned) [Example 260] — 29-fold higher, 186 nM
- N#Cc1cc(NC(=N)c2ccc3c(c2)[C@@H]2O[C@H]3c3ccc(-c4ccc(F)cc4F)cc32)ccc1F (single isomer, unassigned) [Example 283] — 16000-fold higher, 100000 nM
- N=C(NC(=O)c1ccc2c(c1)[C@@H]1O[C@H]2c2ccc(-c3ccc(F)cc3F)cc21)c1ccc(N)cc1 (single isomer, unassigned) [Example 221] — 1600-fold higher, 10000 nM
- Cc1cc2c(c(C)c1CNC(=O)c1ccc3c(c1)C1OC3c3ccc(-c4cccc(F)c4F)cc31)CNC2 (racemic) [Example 100, trifluoroacetate salt] — 980-fold higher, 6170 nM
- Cc1cc2c(c(C)c1CNC(=O)c1ccc3c(c1)C1OC3c3ccc(-c4c(C)cccc4F)cc31)CNC2 (racemic) [Example 124, (±)-N-[(4,6-dimethyl-2,3-dihydro-1H-isoindol-5-yl)methyl]-12-(2-fluoro-6-methylphenyl)-15-oxatetracyclo[6.6.1.0^2,^7.0^9,1^4] pentadeca-2,4,6,9,11,13-hexaene-4-carboxamide] — 1800-fold higher, 11500 nM
- Cc1cc(N)nc(C)c1CNC(=O)c1ccc2c(c1)[C@@H]1O[C@H]2c2ccc(-c3ccc(F)c[n+]3[O-])cc21 (single isomer, unassigned) [Example 214] — 13-fold higher, 83.2 nM
- Nc1noc2cc(CNC(=O)c3ccc4c(c3)[C@@H]3O[C@H]4c4ccc(-c5ccc(F)cc5F)cc43)ccc12 (single isomer, unassigned) [Example 205] — 160-fold higher, 1000 nM
- Cc1ccc(-c2ccc3c(c2)C2OC3c3ccc(C(=O)NCc4c(C)cc(N)nc4C)cc32)c(C#N)n1 (racemic) [Example 157, (±)-N-[(6-amino-2,4-dimethylpyridin-3-yl)-methyl]-12-(2-cyano-6-methylpyridin-3-yl)-15-oxatetracyclo [6.6.1.0^2,^7.0^9,1^4] pentadeca-2,4,6,9,11,13-hexaene-4-carboxamide] — 3.6-fold higher, 22.9 nM
- N=C(N)c1cc(F)c(CNC(=O)c2ccc3c(c2)[C@@H]2O[C@H]3c3ccc(CCC(F)(F)F)cc32)c(F)c1 (single isomer, unassigned) [Example 296] — 6.3-fold lower, 1 nM
